We go through 17 compounds from PubChem BioAssay (NCI).

Test systems include SW-620 colon; SK-MEL-28 melanoma; LOX IMVI melanoma; PC-3 prostate; MALME-3M melanoma; MCF7 breast; HCT-15 colon; TK-10 renal; OVCAR-3 ovarian; NCI-H522 lung.
Holding throughout (assay): NCI anticancer screen, dose series, 48 h

SMILES strings stand for the structures. Where “and” joins values, the source holds several entries; their conditions need not be identical. Equal entries are not always repeated.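 Method: 48-hour compound exposure of cells in 96-well plates, five concentrations, linear interpolation of endpoints. GI50 = concentration required for 50% inhibition of growth. TGI: total growth inhibition.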 Some results are limits rather than exact numbers.

For `O=C1c2cc(Cl)ccc2NC(=NCCCl)C2CSCN12` (configuration not stated), the TGI in the assay on SW-620 colon, in the assay on SK-MEL-28 melanoma, in the assay with LOX IMVI melanoma, in the assay on PC-3 prostate, in the assay on MALME-3M melanoma and with MCF7 breast was over 100 µM throughout. Also, the TGI in the assay on HCT-15 colon, in the assay on TK-10 renal, with OVCAR-3 ovarian and in the assay with NCI-H522 lung was over 100 µM each time.
As to `COc1ccc(N2C=Nn3c(nc4sc5c(c4c3=O)CCCC5)C2)cc1`, the TGI is over 100 µM in the assay with SW-620 colon; over 100 µM in the assay on SK-MEL-28 melanoma; over 100 µM with LOX IMVI melanoma; over 100 µM in the assay on PC-3 prostate; 78 µM in the assay on MALME-3M melanoma; over 100 µM with MCF7 breast. In addition, the TGI with HCT-15 colon, in the assay with TK-10 renal, in the assay on OVCAR-3 ovarian and with NCI-H522 lung was over 100 µM each time.
For the compound `O=c1[nH]nc(Cc2ccccc2)n1CCO`, the TGI in the assay with SW-620 colon, in the assay on SK-MEL-28 melanoma, in the assay with LOX IMVI melanoma, with PC-3 prostate, in the assay on MALME-3M melanoma and in the assay on MCF7 breast was over 100 µM in each case. The TGI in the assay on HCT-15 colon, in the assay with TK-10 renal, in the assay with OVCAR-3 ovarian and with NCI-H522 lung was over 100 µM in each case.
As for `Cc1ccc(NC(=O)CSc2nc(=O)[nH]c3nc[nH]c23)cc1`, the TGI in the assay with SW-620 colon, in the assay with SK-MEL-28 melanoma, with LOX IMVI melanoma, with PC-3 prostate, in the assay on MALME-3M melanoma and in the assay on MCF7 breast was over 100 µM throughout. Moreover, the TGI in the assay on HCT-15 colon, in the assay on TK-10 renal, in the assay on OVCAR-3 ovarian and with NCI-H522 lung was over 100 µM in each case.
As for `CC1=C(C(=O)c2ccccc2)C23C(=O)N(c4ccccc4)C(=O)C2=C(O)C=CC3(O)N1` (configuration not stated), the TGI was 72.7 µM in the assay on SW-620 colon; 39.2 µM in the assay on SK-MEL-28 melanoma; 61.1 µM with LOX IMVI melanoma; over 100 µM with PC-3 prostate; 65.1 µM in the assay with MALME-3M melanoma; over 100 µM in the assay with MCF7 breast. Moreover, the TGI in the assay on HCT-15 colon is over 100 µM; in the assay with TK-10 renal, over 100 µM; in the assay on OVCAR-3 ovarian, 58.9 µM; in the assay with NCI-H522 lung, 28.9 µM.
In the case of `O=CC12C3CCC1C2C(=O)C3` (configuration not stated), the TGI with SW-620 colon, in the assay on SK-MEL-28 melanoma, with LOX IMVI melanoma, with PC-3 prostate, in the assay on MALME-3M melanoma and in the assay with MCF7 breast was over 100 µM in each case. The TGI with HCT-15 colon, in the assay with TK-10 renal, in the assay on OVCAR-3 ovarian and in the assay with NCI-H522 lung was over 100 µM in each case.
As to `C/C=C/C1OC(O)(C(C)C(O)[C@H](C)C2OC(=O)/C(OC)=C/C(C)=C/[C@@H](C)[C@@H](O)[C@@H](C)C(O)C(C)C/C(C)=C/C=C/C2OC)C[C@@H](OC2CC(O)C(OC(N)=O)C(C)O2)C1C` (some centres not stated), the TGI in the assay on SW-620 colon was 1.01 µM; with SK-MEL-28 melanoma it was 3.18 µM; in the assay on LOX IMVI melanoma it was under 0.01 µM; in the assay on PC-3 prostate, 0.625 µM; in the assay with MALME-3M melanoma it was 0.801 µM; in the assay with MCF7 breast it was 7.65 µM. In addition, the TGI in the assay with HCT-15 colon is 13.3 µM; in the assay with TK-10 renal, 1.78 µM; with OVCAR-3 ovarian, 3.24 µM; with NCI-H522 lung, under 0.01 µM.
As for `CC[C@H]1C=CCC[C@@]2(C[C@@H]3CC[C@H]4[C@@H](C(=O)OCCCCCCCCCCCCCCCC(=O)N(CCCN)C[C@@H](O)CCN)[C@@]5(CCC[C@@H](C)O5)NC(=[N+]34)N2)O1`, the TGI with SW-620 colon turned out to be 6.99 µM; in the assay on SK-MEL-28 melanoma, 2.88 µM; in the assay on LOX IMVI melanoma, 3.35 µM; in the assay on PC-3 prostate it was 3.1 µM; in the assay with MALME-3M melanoma, 3.24 µM; in the assay on MCF7 breast, 3.16 µM. For the same compound, the TGI with HCT-15 colon is over 10 µM; in the assay with TK-10 renal, 3.04 µM; in the assay with OVCAR-3 ovarian it was over 10 µM; with NCI-H522 lung, 3.07 µM.
For `N#Cc1c(-c2ccccc2)c(N=Nc2ccc(Cl)cc2)c(=O)n2c1[nH]c1ccccc12`, the TGI with SW-620 colon, in the assay with SK-MEL-28 melanoma, in the assay on LOX IMVI melanoma, in the assay with PC-3 prostate, in the assay on MALME-3M melanoma and in the assay on MCF7 breast was over 100 µM throughout. The TGI in the assay with HCT-15 colon, with TK-10 renal, with OVCAR-3 ovarian and in the assay on NCI-H522 lung was over 100 µM each time.
On to `CC1OC(OC2C(OC(=O)[C@]34CCC(C)(C)C[C@H]3C3=CC[C@@H]5[C@@]6(C)CC[C@H](OC7OC(C(=O)O)C(O)C(OC8OCC(O)C(O)C8O)C7O)C(C)(C)[C@@H]6CC[C@@]5(C)[C@]3(C)CC4)OCC(O)C2O)C(O)C(OC2OCC(O)C(O)C2O)C1OC1OCC(O)C(OC2OCC(O)C(O)C2O)C1O` (some centres not stated), for which the GI50 in the assay with SW-620 colon is 13.6 µM and 27.4 µM; in the assay on SK-MEL-28 melanoma, 5.5 µM and 16.3 µM; with MALME-3M melanoma, 10.6 µM and 28.6 µM; in the assay on OVCAR-3 ovarian, 13 µM and 35 µM; with NCI-H522 lung, 2.53 µM and 12.3 µM. For the same compound, the TGI in the assay with SW-620 colon is 29.5 µM and > 100 µM; with SK-MEL-28 melanoma, 15.9 µM and 30.8 µM; with LOX IMVI melanoma, 26.3 µM and 35.5 µM; in the assay with PC-3 prostate it was 21.7 µM and 23.1 µM; in the assay on MALME-3M melanoma it was 25.7 µM and 91 µM; in the assay on MCF7 breast, 50.7 µM and > 100 µM. For the same compound, the TGI in the assay with HCT-15 colon was 32.2 µM and 42.4 µM; in the assay with TK-10 renal it was 24 µM; in the assay with OVCAR-3 ovarian, 50.4 µM and > 100 µM; in the assay on NCI-H522 lung, 7.93 µM and 25.9 µM.
For `O=C(N/N=C(/COc1ccc([N+](=O)[O-])cc1)N=Cc1ccncc1)c1ccncc1`, the TGI in the assay with SW-620 colon, in the assay on SK-MEL-28 melanoma, in the assay with LOX IMVI melanoma, with PC-3 prostate, in the assay on MALME-3M melanoma and with MCF7 breast was over 100 µM in each case. In addition, the TGI in the assay on HCT-15 colon, in the assay with TK-10 renal, with OVCAR-3 ovarian and in the assay on NCI-H522 lung was over 100 µM in each case.
Consider `CN(c1ccccc1Cl)S(=O)(=O)c1ccc([N+](=O)[O-])cc1`, for which the TGI in the assay with SW-620 colon, in the assay with SK-MEL-28 melanoma, in the assay on LOX IMVI melanoma, in the assay on PC-3 prostate, with MALME-3M melanoma and with MCF7 breast was over 100 µM each time. For the same compound, the TGI in the assay with HCT-15 colon, with TK-10 renal, in the assay on OVCAR-3 ovarian and with NCI-H522 lung was over 100 µM throughout.
For `O=C(CNc1ccccc1[N+](=O)[O-])Nn1c(-c2ccccc2)nc2ccccc2c1=O`, the TGI in the assay with SW-620 colon was determined as 42.2 µM; in the assay with SK-MEL-28 melanoma it was 59.2 µM; in the assay with LOX IMVI melanoma, 24.7 µM; in the assay with PC-3 prostate, 61.5 µM; with MALME-3M melanoma, 40.6 µM; with MCF7 breast, 34.2 µM. For the same compound, the TGI was 44.3 µM with HCT-15 colon, over 10 µM in the assay with TK-10 renal, over 100 µM with OVCAR-3 ovarian and over 10 µM in the assay with NCI-H522 lung.
As to `CCCCCCCCCCC1OC([C@@H](O)CC[C@H](O)C2CC[C@@H](CCCCCCCC(O)CC3=CC(C)OC3=O)O2)CCC1O` (some centres not stated), the GI50 is 4.37 µM in the assay on SW-620 colon; 5.34 µM in the assay with SK-MEL-28 melanoma; 1.71 µM with LOX IMVI melanoma; 2.92 µM in the assay with PC-3 prostate; 1.34 µM with MCF7 breast; 7.58 µM with HCT-15 colon. The GI50 in the assay on OVCAR-3 ovarian was 1.69 µM. Besides, the TGI is over 25 µM in the assay with SW-620 colon; over 25 µM with SK-MEL-28 melanoma; over 12.5 µM with LOX IMVI melanoma; over 25 µM in the assay on PC-3 prostate; over 25 µM in the assay with MALME-3M melanoma; over 25 µM with MCF7 breast. Further, the TGI was over 25 µM in the assay with HCT-15 colon, over 25 µM in the assay with TK-10 renal, over 23.5 µM in the assay with OVCAR-3 ovarian and over 25 µM in the assay on NCI-H522 lung.
As for `COc1ccc2cc(CN3CCC(C4CCNCC4)CC3)ccc2c1`, the TGI in the assay with SW-620 colon was determined as 3.42 µM; in the assay with SK-MEL-28 melanoma, 3.27 µM; in the assay with LOX IMVI melanoma, 2.94 µM; in the assay on PC-3 prostate it was 28 µM; in the assay on MALME-3M melanoma, 3.02 µM; in the assay on MCF7 breast it was 6.32 µM. Further, the TGI was found to be 6.44 µM with HCT-15 colon, 21.3 µM in the assay with TK-10 renal, 15.8 µM in the assay with OVCAR-3 ovarian and 4.54 µM in the assay with NCI-H522 lung.
As to `COc1ccc(OC)c(NS(=O)(=O)c2ccc3nc(C)n(NS(=O)(=O)c4cc(OC)ccc4OC)c(=O)c3c2)c1`, the TGI with SW-620 colon, with SK-MEL-28 melanoma, in the assay with LOX IMVI melanoma, in the assay on PC-3 prostate, in the assay on MALME-3M melanoma and in the assay on MCF7 breast was over 100 µM throughout. Further, the TGI with HCT-15 colon, with TK-10 renal, in the assay on OVCAR-3 ovarian and in the assay with NCI-H522 lung was over 100 µM in each case.
`COc1c(O)cc2c(c1O)C(=O)/C(=C/c1ccc(O)cc1)CO2`: the TGI in the assay on SW-620 colon was 83.4 µM; in the assay with SK-MEL-28 melanoma, 35.3 µM; with LOX IMVI melanoma, 53.1 µM; in the assay with PC-3 prostate, over 100 µM; in the assay with MALME-3M melanoma it was 96.4 µM; in the assay on MCF7 breast it was over 100 µM. Moreover, the TGI in the assay with HCT-15 colon is 38.2 µM; with TK-10 renal it was 85 µM; in the assay on OVCAR-3 ovarian it was 55.5 µM; in the assay on NCI-H522 lung it was 33.8 µM.
